The supplement of paper PMC10307832

Key:
Assay in all cases: relative viability (nuclei count vs DMSO), 5 days (fraction); higher = more cells survive
[1] = compound: CC[C@@H](C)CNCC(=O)N1CCC2=C([C@@H]1COC3=CC=CC(=C3)C)C=CS2 [RU-SKI 43] + N=C(N)NC(=N)NCCc1ccccc1 [Phenformin] (partner 250 µM)
Outline: (§1)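 Lung cancer cell lines in 1536-well plates were dosed by pin tool the day after seeding, either with one drug alone or with a fixed anchor-drug dose plus five library-drug doses (not always all listed) in √10 steps. After 5 days, cells were fixed and their nuclei stained in one step (final 0.05% Triton X-100, 1% formaldehyde, 1 ug/ml Hoechst), then counted on 4× images. Relative viability is the nuclei count in treated wells divided by that in vehicle wells. Values are medians of duplicate plates.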

[2] = compound: Cn1cc(-c2cnc3ccc4ccc(CS(=O)(=O)NCc5ccccn5)cc4c(=O)c3c2)cn1 [MK-8033] + Cc1cc(Nc2cc(N3CCN(C)CC3)nc(Sc3ccc(NC(=O)C4CC4)cc3)n2)n[nH]1 [Tozasertib] (partner 0.1 µM)
Outline: as §1

[3] = compound: CCc1c2c(nc3ccc(OC(=O)N4CCC(N5CCCCC5)CC4)cc13)-c1cc3c(c(=O)n1C2)COC(=O)[C@]3(O)CC [Irinotecan] + C[C@@H](Oc1cc(-c2cnn(C3CCNCC3)c2)cnc1N)c1c(Cl)ccc(F)c1Cl [Crizotinib] (partner 1 µM)
Outline: as §1

[4] = compound: CCc1c2c(nc3ccc(OC(=O)N4CCC(N5CCCCC5)CC4)cc13)-c1cc3c(c(=O)n1C2)COC(=O)[C@]3(O)CC [Irinotecan] + N=C(N)NC(=N)NCCc1ccccc1 [Phenformin] (partner 250 µM)
Outline: as §1

## NCI-H358
[1]; first compound 0.1 µM
  relative viability: 0.305
[1]; first compound 0.3162 µM
  relative viability: 0.432
[1]; first compound 1 µM
  relative viability: 0.402
[1]; first compound 3.162 µM
  relative viability: 0.436
[1]; first compound 10 µM
  relative viability: 0.271
[2]; first compound 0.02 µM
  relative viability: 0.0969
[2]; first compound 0.06325 µM
  relative viability: 0.0932
[2]; first compound 0.2 µM
  relative viability: 0.1
[2]; first compound 0.6325 µM
  relative viability: 0.0977
[2]; first compound 2 µM
  relative viability: 0.106
[3]; first compound 0.6325 µM
  relative viability: 0.497
[3]; first compound 2 µM
  relative viability: 0.431
[3]; first compound 6.325 µM
  relative viability: 0.484
[3]; first compound 20 µM
  relative viability: 0.139
[4]; first compound 0.6325 µM
  relative viability: 0.273
[4]; first compound 2 µM
  relative viability: 0.278
[4]; first compound 6.325 µM
  relative viability: 0.125
[4]; first compound 20 µM
  relative viability: 0.0851

## NCI-H520
[1]; first compound 0.1 µM
  relative viability: 0.673
[1]; first compound 0.3162 µM
  relative viability: 0.629
[1]; first compound 1 µM
  relative viability: 0.519
[1]; first compound 3.162 µM
  relative viability: 0.581
[1]; first compound 10 µM
  relative viability: 0.561
[2]; first compound 0.02 µM
  relative viability: 0.408
[2]; first compound 0.06325 µM
  relative viability: 0.453
[2]; first compound 0.2 µM
  relative viability: 0.433
[2]; first compound 0.6325 µM
  relative viability: 0.485
[2]; first compound 2 µM
  relative viability: 0.469
[3]; first compound 0.6325 µM
  relative viability: 0.639
[3]; first compound 2 µM
  relative viability: 0.524
[3]; first compound 6.325 µM
  relative viability: 0.279
[3]; first compound 20 µM
  relative viability: 0.225
[4]; first compound 0.6325 µM
  relative viability: 0.542
[4]; first compound 2 µM
  relative viability: 0.649
[4]; first compound 6.325 µM
  relative viability: 0.317
[4]; first compound 20 µM
  relative viability: 0.258

## BEN
[1]; first compound 0.1 µM
  relative viability: 0.26
[1]; first compound 0.3162 µM
  relative viability: 0.283
[1]; first compound 1 µM
  relative viability: 0.238
[1]; first compound 3.162 µM
  relative viability: 0.262
[1]; first compound 10 µM
  relative viability: 0.267
[2]; first compound 0.02 µM
  relative viability: 0.544
[2]; first compound 0.06325 µM
  relative viability: 0.491
[2]; first compound 0.2 µM
  relative viability: 0.461
[2]; first compound 0.6325 µM
  relative viability: 0.492
[2]; first compound 2 µM
  relative viability: 0.545
[3]; first compound 0.6325 µM
  relative viability: 0.928
[3]; first compound 2 µM
  relative viability: 0.52
[3]; first compound 6.325 µM
  relative viability: 0.252
[3]; first compound 20 µM
  relative viability: 0.391
[4]; first compound 0.6325 µM
  relative viability: 0.242
[4]; first compound 2 µM
  relative viability: 0.247
[4]; first compound 6.325 µM
  relative viability: 0.24
[4]; first compound 20 µM
  relative viability: 0.272

## A-427
[1]; first compound 0.1 µM
  relative viability: 0.335
[1]; first compound 0.3162 µM
  relative viability: 0.308
[1]; first compound 1 µM
  relative viability: 0.44
[1]; first compound 3.162 µM
  relative viability: 0.29
[1]; first compound 10 µM
  relative viability: 0.305
[2]; first compound 0.02 µM
  relative viability: 0.225
[2]; first compound 0.06325 µM
  relative viability: 0.213
[2]; first compound 0.2 µM
  relative viability: 0.209
[2]; first compound 0.6325 µM
  relative viability: 0.17
[2]; first compound 2 µM
  relative viability: 0.194
[3]; first compound 2 µM
  relative viability: 0.243
[3]; first compound 6.325 µM
  relative viability: 0.179
[3]; first compound 20 µM
  relative viability: 0.214
[4]; first compound 2 µM
  relative viability: 0.21
[4]; first compound 6.325 µM
  relative viability: 0.173
[4]; first compound 20 µM
  relative viability: 0.184

## EMC-BAC-2
[1]; first compound 0.1 µM
  relative viability: 0.535
[1]; first compound 0.3162 µM
  relative viability: 0.429
[1]; first compound 1 µM
  relative viability: 0.551
[1]; first compound 3.162 µM
  relative viability: 0.482
[1]; first compound 10 µM
  relative viability: 0.507
[2]; first compound 0.02 µM
  relative viability: 0.295
[2]; first compound 0.06325 µM
  relative viability: 0.254
[2]; first compound 0.2 µM
  relative viability: 0.281
[2]; first compound 0.6325 µM
  relative viability: 0.265
[2]; first compound 2 µM
  relative viability: 0.298
[3]; first compound 0.6325 µM
  relative viability: 0.332
[3]; first compound 2 µM
  relative viability: 0.291
[3]; first compound 6.325 µM
  relative viability: 0.216
[3]; first compound 20 µM
  relative viability: 0.19
[4]; first compound 0.6325 µM
  relative viability: 0.336
[4]; first compound 2 µM
  relative viability: 0.399
[4]; first compound 6.325 µM
  relative viability: 0.271
[4]; first compound 20 µM
  relative viability: 0.276

## NCI-H1975
[1]; first compound 0.1 µM
  relative viability: 0.385
[1]; first compound 0.3162 µM
  relative viability: 0.468
[1]; first compound 1 µM
  relative viability: 0.444
[1]; first compound 3.162 µM
  relative viability: 0.422
[1]; first compound 10 µM
  relative viability: 0.404
[2]; first compound 0.02 µM
  relative viability: 0.725
[2]; first compound 0.06325 µM
  relative viability: 0.608
[2]; first compound 0.2 µM
  relative viability: 0.677
[2]; first compound 2 µM
  relative viability: 0.352
[3]; first compound 0.6325 µM
  relative viability: 0.914
[3]; first compound 2 µM
  relative viability: 1
[3]; first compound 6.325 µM
  relative viability: 0.401
[3]; first compound 20 µM
  relative viability: 0.329
[4]; first compound 0.6325 µM
  relative viability: 0.407
[4]; first compound 2 µM
  relative viability: 0.448
[4]; first compound 6.325 µM
  relative viability: 0.296
[4]; first compound 20 µM
  relative viability: 0.194

## NCI-H1755
[1]; first compound 0.1 µM
  relative viability: 0.648
[1]; first compound 0.3162 µM
  relative viability: 0.613
[1]; first compound 1 µM
  relative viability: 0.63
[1]; first compound 3.162 µM
  relative viability: 0.644
[1]; first compound 10 µM
  relative viability: 0.666
[2]; first compound 0.02 µM
  relative viability: 0.552
[2]; first compound 0.06325 µM
  relative viability: 0.473
[2]; first compound 0.2 µM
  relative viability: 0.536
[2]; first compound 0.6325 µM
  relative viability: 0.537
[2]; first compound 2 µM
  relative viability: 0.536
[3]; first compound 0.6325 µM
  relative viability: 0.712
[3]; first compound 2 µM
  relative viability: 0.497
[3]; first compound 6.325 µM
  relative viability: 0.332
[3]; first compound 20 µM
  relative viability: 0.451
[4]; first compound 0.6325 µM
  relative viability: 0.498
[4]; first compound 2 µM
  relative viability: 0.603
[4]; first compound 6.325 µM
  relative viability: 0.296
[4]; first compound 20 µM
  relative viability: 0.307

## NCI-H2023
[1]; first compound 0.1 µM
  relative viability: 0.421
[1]; first compound 0.3162 µM
  relative viability: 0.471
[1]; first compound 1 µM
  relative viability: 0.466
[1]; first compound 3.162 µM
  relative viability: 0.43
[1]; first compound 10 µM
  relative viability: 0.396
[2]; first compound 0.02 µM
  relative viability: 0.374
[2]; first compound 0.06325 µM
  relative viability: 0.273
[2]; first compound 0.2 µM
  relative viability: 0.251
[2]; first compound 0.6325 µM
  relative viability: 0.221
[2]; first compound 2 µM
  relative viability: 0.122
[3]; first compound 0.6325 µM
  relative viability: 0.676
[3]; first compound 2 µM
  relative viability: 0.532
[3]; first compound 6.325 µM
  relative viability: 0.205
[3]; first compound 20 µM
  relative viability: 0.0482
[4]; first compound 0.6325 µM
  relative viability: 0.415
[4]; first compound 2 µM
  relative viability: 0.391
[4]; first compound 6.325 µM
  relative viability: 0.178
[4]; first compound 20 µM
  relative viability: 0.0825

## EKVX
[1]; first compound 0.1 µM
  relative viability: 0.221
[1]; first compound 0.3162 µM
  relative viability: 0.197
[1]; first compound 1 µM
  relative viability: 0.261
[1]; first compound 3.162 µM
  relative viability: 0.235
[1]; first compound 10 µM
  relative viability: 0.193
[2]; first compound 0.02 µM
  relative viability: 0.482
[2]; first compound 0.06325 µM
  relative viability: 0.262
[2]; first compound 0.2 µM
  relative viability: 0.466
[2]; first compound 0.6325 µM
  relative viability: 0.288
[2]; first compound 2 µM
  relative viability: 0.313
[3]; first compound 0.6325 µM
  relative viability: 1.08
[3]; first compound 2 µM
  relative viability: 0.81
[3]; first compound 6.325 µM
  relative viability: 0.244
[3]; first compound 20 µM
  relative viability: 0.232
[4]; first compound 0.6325 µM
  relative viability: 0.216
[4]; first compound 2 µM
  relative viability: 0.185
[4]; first compound 6.325 µM
  relative viability: 0.224
[4]; first compound 20 µM
  relative viability: 0.151
